The values that follow come from patent US20130273519A1, “COMPOSITION FOR TREATING BLOOD AND SET OF DIAGNOSTIC KIT COMPRISING THE SAME TO DETECT AUTOIMMUNE DISEASE” (priority 2012, published 2013).

Each structure is given as a SMILES string.

The assay deals with level of expression of MMP-3 in blood. Nature of the assay: Level of expression of MMP-3 in blood stimulated with PMA, measured using flow cytometer (FACS). The class given is cell-based, human. Details: unit not given here. Conditions: for level of expression of MMP-3, After: 500 ul whole blood, 90 ng PMA, 3 h + 6 h Brefeldin A; for level of expression of MMP-3, Total (After minus Before): PMA stimulation. Here is the method: In order to implement the method of stimulating blood and to check the clinical value of the kit of the present invention, the level of expression of MMP-3 was checked using a flow cytometer. 3 ml of blood was collected to sodium citrate tube (BD vacutainer), and CBC (complete blood count) was measured immediately upon pumping-up the blood. Then, the blood was stimulated with the chemical substance of the present invention. 500 ul of whole blood was put into the 24 wells plate for cell culture, and 90 ng of PMA was added into the plate. Then, the cell culture plate was put into a 5% CO2 incubator, and was kept at 37 for 3 hours. After 3 hours, 200 ug/ml of Brefeldin A(SIGMA) was added into the plate, and placed at 37 for 6 hours.
After lapse of the total 9 hours, 50 ul of blood was extracted, and put into 2 tubes respectively. Then, 10 ul of CD45-PC5 10 and 10 ul of CD14-FITC were respectively added to the 2 tubes, mixed with each other, and placed in a darkroom at room temperature for 15 min. Then, 100 ul of RBC lysis buffer (Bechman coulter) was added to the 2 tubes respectively, and mixed with each other using a vortex. The mixtures were placed in a darkroom at room temperature for 15 min. Then, 4 ml of PBS was added to the 2 tubes respectively, and centrifuged to remove the supernatant. Here, the supernatant was not removed using pipette, but poured out to minimize the loss of cells. 100 ul of 0.1% saponin was added to the remaining cells, and stirred smoothly using pipette. Then, the mixture was placed in a darkroom at room temperature for 5min. Then, 10 ul of IgG1-PE was added to the control group and 10 ul of MMP-3-PE was added to the comparative group, and then the both groups were placed in a darkroom for 15 min. After 15 min, 4 ml of PBS was added to the each group, and centrifuged under the condition of 2000 g, 5 min and 4 to remove the supernatant. Then, 500 ul of fresh PBS was added to the each group, and fluorescence-activated cell sorting (FACS) was performed.

[1] abbreviates: RA (R), patient with reduced activity after being treated with drugs.
[2] abbreviates: RA (S), patient with severe rheumatoid arthritis.
The mark [3] stands for this setting: RA (mi), patient with mild rheumatoid arthritis.

Regarding `CCCCCCCCCCCCCC(=O)O[C@@H]1[C@@H](C)[C@@]2(O)[C@@H](C=C(CO)C[C@]3(O)C(=O)C(C)=C[C@@H]23)[C@@H]2C(C)(C)[C@]12OC(C)=O` [PMA, Phorbol 12-myristate 13-acetate], the “level of expression of MMP-3, After” value runs as follows: (Normal1 (normal person)) 39.23; (Normal2 (normal person)) 53.05; under setting [1], 48.35; under setting [2], 68.97; under setting [3], 63.65; (RA (s)) 64.53. In addition, the “level of expression of MMP-3, Total (After minus Before)” value by setting is: (Normal1 (normal person)) 12.56; (Normal2 (normal person)) 11.49; under setting [1], 14.86; under setting [2], 43.64; under setting [3], 27.52; (RA (s)) 26.12.
